The assay deals with human isolated detrusor muscle. Description: Relaxation of U46619-induced plateau of contraction in human isolated detrusor muscle strips (organ bath). The note with it: for Emax at 100 µM / EC50: Homo sapiens; for Emax at 100 µM: at the concentration of 100 µM, percent relaxation of 1 µM U46619 plateau, 10 µM forskolin taken as 100% relaxation, read-out: maximal relaxant effect (Emax); for EC50: mean, relaxation of plateau of contraction induced by 1 µM U46619 after priming with 0.1 µM forskolin, CRC 0.03 - 100 µM, non linear regression fit, read-out: pEC50 (-log EC50) (converted). How it is done:
The detrusor muscle was separated from mucosa and adventitia and cut into small strips which were mounted, under 1 g initial tension, in 5 mL glass organ baths containing oxygenated Krebs-Henseleit solution (composition in mM: NaCl 114, KCl 4.7, CaCl2 2.5, MgS04 1.2, KH2PO4 1.2, NaHCO3 25, glucose 11.7) kept at 37°C. Tissues were allowed to equilibrate for at least 60 minutes during which time the Krebs solution was replaced every 15 min. After the stabilization period, a reference contraction to 80 mM KCl was performed on each strip. Tissues having a contraction less than 1 g were discarded. After wash-outs and a further 45 min of re-equilibration, during which the resting tension was adjusted periodically, each strip was primed with 0.1 µM forskolin, an adenylyl cyclise activator, for 10 min then recontracted with 1 µM U46619 for at least 20 min, until a stable plateau of contraction was obtained. Strips having a plateau of contraction less than 0.2 g were discarded. After obtaining a stable plateau of contraction, concentration-responses curves (CRC) to drotaverine and rolipram (0.03 - 100 µM) or the common vehicle (DMSO from 0.003 to 1 % in the organ bath) were performed. At the end of the CRC, the maximal relaxant effect for each strip was determined following application of 10 µM forskolin into the organ baths. Only one CRC to each substance or solvent was tested in a single strip. CRCs were constructed using 8 bladder strips from 4 different patients. Results were expressed as percent relaxation of the plateau of contraction induced by 1 µM U46619, with respect to the maximal effect obtained with 10 µM forskolin taken as 100% relaxation.
All CRCs were fitted by non linear regressions using the software GraphPad Prism® version 4.0 to obtain the following parameters: Emax: Maximal relaxation induced by the tested substance; EC50: the concentration which induces 50% of the maximum effect, expressed as pEC50 (-log EC50). Comparisons of the CRCs were performed with two-way analysis of variance (ANOVA) statistical analysis test and Bonferroni post-test. All differences will be considered statistically significant when the null hypothesis can be rejected at a risk α of less than 0.05.

Here are results for two compounds from patent EP2156835A1, “New therapeutic use of drotaverine” (Sanofi-Aventis, priority 2008, dated 2010).

For `CCOc1ccc(C=C2NCCc3cc(OCC)c(OCC)cc32)cc1OCC` [drotaverine, 1-[(3,4-diethoxyphenyl)methylene]-6,7-diethoxy-1,2,3,4-tetrahydro-isoquinoline], the Emax – broadly, the greatest response seen or fitted, relative to the assay's reference – at 100 µM came out at 80.8 ± 3.07% and the EC50 (commonly the concentration needed to bring the measured effect to its halfway point) was 32.4 µM. For the same compound, for the setting “from 0.03 to 10 µM”, the “relaxation of U46619-contracted detrusor strips” value was “slight relaxation”. Where the note is “from 30 to 100 µM”, the “relaxation of U46619-induced detrusor muscle contraction” value is given as “significant concentration-dependent relaxation”.
As to `COc1ccc(C2CNC(=O)C2)cc1OC1CCCC1` (stereo not shown) [rolipram], the Emax at 100 µM turned out to be 89.5 ± 2.68% and the EC50 is 0.151 µM. For the same compound, the “relaxation of U46619-induced human detrusor contraction” value (from 0.03 to 100 µM) is “significant concentration-dependent relaxation”.
